In this test the target is EBI2 (Homo sapiens, UniProt P32249). The test is described as follows: Cell-based luminescent assay (EBI2 modulation). Conditions: cell-based luminescence; 7a,25-OHC final assay concentration 80 nM; 60 minutes incubation; read-out: IC50. Here is the method: Cell-Based Luminescent Assay
To assess EBI2 modulation, the compounds described herein were assayed in the following cell-based luminescent assay:
1) Plated 600 cells/well in 4 uL of assay media into columns 1-48 of a 1536-well assay plate, using a liquid dispenser.
2) Centrifuged plates at 1000 rpm for 1 minute and covered with lids.
3) Incubated overnight at 37° C., 100% relative humidity, 5% CO2.
1) Centrifuged compound plates containing compounds described herein at 500 rpm for 1 minute.
2) Added compounds into assay plate col 5-48 to final concentration 4-5 uM. Added matching amount of DMSO to positive and negative control wells in columns 1-4.
3) Dispensed 2 ul/well of assay media to columns 1-2 for the positive control wells.
4) Added 2 ul/well of 400 nM 7a,25-OHC (final assay concentration=80 nM) in assay media to columns 3-48 for the negative control and test compound wells.
5) Centrifuged plates at 1000 rpm for 1 minute and re-lid plates.
6) Incubated plates at 37° C., 100% relative humidity, 5% CO2 for 60 minutes.
7) Following 60 minute incubation, delivered 2.5 uL of Detection Reagent solution to each assay plate (Columns 1-48) using a liquid handler.
8) Centrifuged plates at 2000 rpm for 2 minutes and re-lid plates.
9) Incubated plates for 60 minutes at 25 degrees in the dark.
10) Read plates using the Viewlux, Envision or other suitable plate reader using a luminescence detection.
The experimental values were normalized by the difference between values from neutral and stimulator control wells in each plate. Then normalized data was corrected to remove systematic plate patterns due to artifacts such as dispensing tip issues etc.

Where only a bound is given, the exact number is not on record here.

Chain of EBI2 (P32249 whole entry): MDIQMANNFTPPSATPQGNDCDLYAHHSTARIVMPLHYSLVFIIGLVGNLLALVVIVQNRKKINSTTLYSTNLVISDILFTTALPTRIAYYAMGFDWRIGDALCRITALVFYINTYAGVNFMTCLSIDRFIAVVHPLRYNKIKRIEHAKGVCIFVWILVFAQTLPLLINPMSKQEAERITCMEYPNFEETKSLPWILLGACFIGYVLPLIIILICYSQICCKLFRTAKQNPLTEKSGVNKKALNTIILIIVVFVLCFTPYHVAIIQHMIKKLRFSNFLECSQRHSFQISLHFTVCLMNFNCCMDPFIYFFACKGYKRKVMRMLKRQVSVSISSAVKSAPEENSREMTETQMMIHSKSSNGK

For the molecule `CCOc1ccc(/C=C/C(=O)N2CCN(C(c3ccccc3)c3ccccc3)CC2)cc1` [Compound C21, (2E)-1-[4-(diphenylmethyl)piperazinyl]-3-(4-ethoxyphenyl)prop-2-en-1-one], the IC50 (usually the concentration that inhibits the measured activity by half) is < 0.1 µM.

Take `O=C(/C=C/c1ccc(F)cc1)N1CCN(S(=O)(=O)C2=Cc3ccccc3CC2)CC1` [Compound C22, (2E)-1-[4-(2-3,4-dihydronaphthylsulfonyl)piperazinyl]-3-(4-fluorophenyl)prop-2-en-1-one]: the IC50 was < 0.1 µM.

Consider `O=C(/C=C/c1ccc(Cl)c(Cl)c1)N1CCN(C(=O)c2ccc(Cl)cc2)CC1` [Compound C23, (2E)-3-(3,4-dichlorophenyl)-1-{4-[(4-chlorophenyl)carbonyl]piperazinyl}prop-2-en-1-one], for which the concentration for half-maximal inhibition (IC50) is < 0.1 µM.

On to `O=C(C#Cc1ccc(Cl)cc1)N1CCN(C(=O)c2ccc(F)cc2)CC1` [Compound C28, 3-(4-chlorophenyl)-1-{4-[(4-fluorophenyl)carbonyl]piperazinyl}prop-2-yn-1-one], for which the IC50 was < 0.1 µM.

Turning to `O=C(/C=C/c1ccc(C(F)(F)F)cc1)N1CCN(C(c2ccccc2)c2ccccc2)CC1` [Compound C29, (2E)-1-[4-(diphenylmethyl)piperazinyl]-3-[4-(trifluoromethyl)phenyl]prop-2-en-1-one], the half-inhibitory concentration (IC50) was < 0.1 µM.

For `O=C(/C=C/c1ccc(Br)cc1)N1CCN(Cc2cc(F)cc(F)c2)CC1` [Compound C31, (2E)-1-{4-[(3,5-difluorophenyl)methyl]piperazinyl}-3-(4-bromophenyl)prop-2-en-1-one], the IC50 was < 0.1 µM.

For `Cc1cc(CN2CCN(C(=O)/C=C/c3ccc(Br)cc3)CC2)ccc1F` [Compound C32, (2E)-3-(4-bromophenyl)-1-{4-[(4-fluoro-3-methylphenyl)methyl]piperazinyl}prop-2-en-1-one], the half-maximal inhibitory concentration (IC50) is < 0.1 µM.

`Cc1ccc(C#CC(=O)N2CCN(C(=O)c3ccc(Cl)cc3)CC2)cc1` [Compound C33, 1-{4-[(4-chlorophenyl)carbonyl]piperazinyl}-3-(4-methylphenyl)prop-2-yn-1-one]: the IC50 was < 0.1 µM.

Turning to `O=C(C#Cc1cccc(Cl)c1)N1CCN(C(=O)c2ccc(Cl)cc2)CC1` [Compound C34, 3-(3-chlorophenyl)-1-{4-[(4-chlorophenyl)carbonyl]piperazinyl}prop-2-yn-1-one], the IC50 was < 0.1 µM.

In the case of `O=C(C#Cc1cccc(Cl)c1)N1CCN(C(=O)c2ccc(F)cc2)CC1` [Compound C35, 3-(3-chlorophenyl)-1-{4-[(4-fluorophenyl)carbonyl]piperazinyl}prop-2-yn-1-one], the half-inhibitory concentration (IC50) was < 0.1 µM.

In the case of `O=C(/C=C/c1ccc(Br)cc1)N1CCN(S(=O)(=O)c2ccc(Br)cc2)CC1` [Compound C37, (2E)-3-(4-bromophenyl)-1-{4-[(4-bromophenyl)sulfonyl]piperazinyl}prop-2-en-1-one], the IC50 is < 0.1 µM.

As for `Cc1ccc(C#CC(=O)N2CCN(C(=O)c3ccc(F)cc3)CC2)cc1` [Compound C38, 1-{4-[(4-fluorophenyl)carbonyl]piperazinyl}-3-(4-methylphenyl)prop-2-yn-1-one], the half-maximal inhibitory concentration (IC50) was < 0.1 µM.

For the molecule `O=C(/C=C/c1ccc(Br)cc1)N1CCN(Cc2ccc(Cl)c(Cl)c2)CC1` [Compound C39, (2E)-1-{4-[(3,4-dichlorophenyl)methyl]piperazinyl}-3-(4-bromophenyl)prop-2-en-1-one], the IC50 was < 0.1 µM.

On to `O=C(/C=C/c1ccc(Cl)cc1F)N1CCN(C(c2ccccc2)c2ccccc2)CC1` [Compound C40], for which the IC50 is < 0.1 µM.

`Cc1ccc(CN2CCN(C(=O)/C=C/c3ccc(Br)cc3)CC2)cc1` [Compound C41, (2E)-3-(4-bromophenyl)-1-{4-[(4-methylphenyl)methyl]piperazinyl}prop-2-en-1-one]: the IC50 was < 0.1 µM.

On to `O=C(/C=C/c1ccccc1)N1CCN(C(c2ccccc2)c2ccccc2)CC1` [Compound C42, (2E)-1-[4-(diphenylmethyl)piperazinyl]-3-phenylprop-2-en-1-one], for which the IC50 was < 0.1 µM.

Take `O=C(/C=C/c1ccc(Br)cc1)N1CCN(C(=O)c2ccc(C(F)(F)F)cc2)CC1` [Compound C44, (2E)-3-(4-bromophenyl)-1-(4-{[4-(trifluoromethyl)phenyl]carbonyl}piperazinyl)prop-2-en-1-one]: the concentration for half-maximal inhibition (IC50) was < 0.1 µM.

For the molecule `O=C(c1cc2ccc(Cl)cc2s1)N1CCN(C(c2ccccc2)c2ccccc2)CC1` [Compound C45, 4-(diphenylmethyl)piperazinyl 6-chlorobenzo[b]thiophen-2-yl ketone], the IC50 was < 0.1 µM.

In the case of `Cc1ccc2[nH]c(C(=O)N3CCN(S(=O)(=O)/C=C/c4ccccc4)CC3)cc2c1` [Compound C48, 4-[((1E)-2-phenylvinyl)sulfonyl]piperazinyl 5-methylindol-2-yl ketone], the IC50 was < 0.1 µM.

For `CCCCN1CCN(C(=O)/C=C/c2ccc(Br)cc2)CC1` [Compound C49, (2E)-3-(4-bromophenyl)-1-(4-butylpiperazinyl)prop-2-en-1-one], the half-inhibitory concentration (IC50) was < 0.1 µM.

Take `CC(C)CN1CCN(C(=O)/C=C/c2ccc(Br)cc2)CC1` [Compound C52, (2E)-3-(4-bromophenyl)-1-[4-(methylpropyl)piperazinyl]prop-2-en-1-one]: the IC50 is < 0.1 µM.

With `Cc1ccc(C#CC(=O)N2CCN(C(=O)c3ccc(C(F)(F)F)cc3)CC2)cc1` [Compound C53, 3-(4-methylphenyl)-1-(4-{[4-(trifluoromethyl)phenyl]carbonyl}piperazinyl)prop-2-yn-1-one], the IC50 was < 0.1 µM.

Consider `O=C(c1cc2cc(Cl)ccc2[nH]1)N1CCN(C(c2ccccc2)c2ccccc2)CC1` [Compound C56, 4-(diphenylmethyl)piperazinyl 5-chloroindol-2-yl ketone], for which the 50% inhibitory concentration (IC50) was < 0.1 µM.

As for `Cc1ccc2[nH]c(C(=O)N3CCN(S(=O)(=O)CCc4ccccc4)CC3)cc2c1` [Compound C57, 5-methylindol-2-yl 4-[(2-phenylethyl)sulfonyl]piperazinyl ketone], the 50% inhibitory concentration (IC50) is < 0.1 µM.

As for `Cc1ccc(C#CC(=O)N2CCN(C(c3ccccc3)c3ccccc3)CC2)cc1` [Compound C58, 1-[4-(diphenylmethyl)piperazinyl]-3-(4-methylphenyl)prop-2-yn-1-one], the IC50 was < 0.1 µM.

Take `COc1ccc(C(=O)N2CCN(C(=O)C#Cc3cccc(Cl)c3)CC2)cc1` [Compound C59, 3-(3-chlorophenyl)-1-{4-[(4-methoxyphenyl)carbonyl]piperazinyl}prop-2-yn-1-one]: the half-inhibitory concentration (IC50) was < 0.1 µM.

In the case of `O=C(C#Cc1ccc(C(F)(F)F)cc1)N1CCN(C(=O)c2ccc(Cl)cc2)CC1` [Compound C60, 1-{4-[(4-chlorophenyl)carbonyl]piperazinyl}-3-[4-(trifluoromethyl)phenyl]prop-2-yn-1-one], the IC50 is < 0.1 µM.

Take `O=C(C#Cc1ccc(Br)cc1)N1CCN(C(=O)c2ccc(Br)cc2)CC1` [Compound C61, 3-(4-bromophenyl)-1-{4-[(4-bromophenyl)carbonyl]piperazinyl}prop-2-yn-1-one]: the IC50 is < 0.1 µM.

With `COC(=O)c1ccc(C(=O)N2CCN(C(=O)c3cc4cc(Cl)ccc4[nH]3)CC2)cc1` [Compound C62, methyl 4-({4-[(5-chloroindol-2-yl)carbonyl]piperazinyl}carbonyl)benzoate], the 50% inhibitory concentration (IC50) was < 0.1 µM.

As to `O=C(/C=C/c1ccc([N+](=O)[O-])cc1)N1CCN(C(c2ccccc2)c2ccccc2)CC1` [Compound C63, (2E)-1-[4-(diphenylmethyl)piperazinyl]-3-(4-nitrophenyl)prop-2-en-1-one], the concentration for half-maximal inhibition (IC50) is < 0.1 µM.

Take `O=C(C#Cc1ccccc1)N1CCN(C(=O)c2ccc(Br)cc2)CC1` [Compound C65, 1-{4-[(4-bromophenyl)carbonyl]piperazinyl}-3-phenylprop-2-yn-1-one]: the half-inhibitory concentration (IC50) is < 0.1 µM.

As to `O=C(C#Cc1ccc(C(F)(F)F)cc1)N1CCN(C(c2ccccc2)c2ccccc2)CC1` [Compound C66, 1-[4-(diphenylmethyl)piperazinyl]-3-[4-(trifluoromethyl)phenyl]prop-2-yn-1-one], the half-maximal inhibitory concentration (IC50) was < 0.1 µM.

With `O=C(/C=C/c1ccc(F)cc1)N1CCN(C(c2ccccc2)c2ccccc2)CC1` [Compound C68, (2E)-1-[4-(diphenylmethyl)piperazinyl]-3-(4-fluorophenyl)prop-2-en-1-one], the IC50 was < 0.1 µM.

Turning to `O=C(C#Cc1ccc(F)cc1)N1CCN(C(=O)c2ccc(Cl)cc2)CC1` [Compound C69, 1-{4-[(4-chlorophenyl)carbonyl]piperazinyl}-3-(4-fluorophenyl)prop-2-yn-1-one], the IC50 was < 0.1 µM.

Take `O=C(C#Cc1ccc(Br)cc1)N1CCN(C(=O)c2ccc(F)cc2)CC1` [Compound C70, 3-(4-bromophenyl)-1-{4-[(4-fluorophenyl)carbonyl]piperazinyl}prop-2-yn-1-one]: the 50% inhibitory concentration (IC50) is < 0.1 µM.

Take `O=C(c1cc2ccccc2[nH]1)N1CCN(C(c2ccccc2)c2ccccc2)CC1` [Compound C71, 4-(diphenylmethyl)piperazinyl indol-2-yl ketone]: the IC50 is < 0.1 µM.

`COc1cc(CN2CCN(C(=O)/C=C/c3ccc(Br)cc3)CC2)cc(OC)c1` [Compound C72, (2E)-1-{4-[(3,5-dimethoxyphenyl)methyl]piperazinyl}-3-(4-bromophenyl)prop-2-en-1-one]: the concentration for half-maximal inhibition (IC50) is < 0.1 µM.
